The results in this text go back to patent publication US10040759B2, “Substituted azetidinyl compounds as GlyT1 inhibitors” (DART NEUROSCIENCE (CAYMAN) LTD., priority 2014, dated 2018).

Structures are written as SMILES.

The assay concerns the target T1, GlyT1 (Homo sapiens, UniProt P48067).
T1 construct: expressed in transfected cells
T1 sequence (P48067 1-706): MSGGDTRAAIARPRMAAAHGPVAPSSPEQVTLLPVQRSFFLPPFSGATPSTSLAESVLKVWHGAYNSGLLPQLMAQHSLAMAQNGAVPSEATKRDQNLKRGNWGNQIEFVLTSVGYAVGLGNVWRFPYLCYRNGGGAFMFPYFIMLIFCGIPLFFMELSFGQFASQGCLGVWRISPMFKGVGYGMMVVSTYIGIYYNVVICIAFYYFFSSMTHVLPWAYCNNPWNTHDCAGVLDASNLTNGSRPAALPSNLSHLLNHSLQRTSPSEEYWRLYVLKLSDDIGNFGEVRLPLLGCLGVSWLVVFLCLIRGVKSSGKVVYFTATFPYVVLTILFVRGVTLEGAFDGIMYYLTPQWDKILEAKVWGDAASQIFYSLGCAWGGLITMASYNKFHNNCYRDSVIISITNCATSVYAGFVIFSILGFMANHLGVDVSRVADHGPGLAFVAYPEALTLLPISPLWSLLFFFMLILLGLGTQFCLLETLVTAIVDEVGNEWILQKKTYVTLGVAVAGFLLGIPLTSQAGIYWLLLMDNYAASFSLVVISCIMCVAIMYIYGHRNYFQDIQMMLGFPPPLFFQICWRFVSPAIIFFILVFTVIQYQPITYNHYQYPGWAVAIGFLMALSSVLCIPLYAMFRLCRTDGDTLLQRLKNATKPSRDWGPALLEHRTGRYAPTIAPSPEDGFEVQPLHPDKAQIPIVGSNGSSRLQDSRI
The assay is described as follows: Glycine Transporter 1 (GlyT1) uptake assay, scintillation proximity assay of [14C]-glycine uptake. It is filed as cell-based. The note with it: [14C]-glycine uptake; read-out: GlyT1 (pIC50) (converted). In short, it runs like this: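 IC50 values were derived by four-parameter logistic fitting of counts. The 2× compound solutions were made by 1:100 dilution into HBSS of DMSO serial dilutions.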

On to `COc1c(C#N)ccc(C2(F)CCC2)c1C(=O)N1CC(c2ccc(C(F)(F)F)cc2)C1` [Example 3, 4-(1-Fluorocyclobutyl)-2-methoxy-3-({3-[4-(trifluoromethyl)phenyl]azetidin-1-yl}carbonyl)benzonitrile], for which the IC50 was below 100 nM.
Turning to `CC(Oc1ccc(C#N)c(Cl)c1C(=O)N1CC(c2ccccn2)C1)C(F)(F)F` (stereo not shown) [Example 88, 2-Chloro-3-{[3-(pyridin-2-yl)azetidin-1-yl]carbonyl}-4-[(1,1,1-trifluoropropan-2-yl)oxy]benzonitrile], the IC50 is 100 to 1000 nM.
The figure for `C#Cc1cc(C(F)(F)F)cnc1C1CN(C(=O)c2c(O[C@@H](C)C(F)(F)F)ccc(C#N)c2OC)C1` [Example 7, (S)-3-(3-(3-ethynyl-5-(trifluoromethyl)pyridin-2-yl)azetidine-1-carbonyl)-2-methoxy-4-((1,1,1-trifluoropropan-2-yl)oxy)benzonitrile] is 100 to 1000 nM; for `COc1c(S(C)(=O)=O)ccc(O[C@@H](C)C(F)(F)F)c1C(=O)N1CC(c2ccc(F)c(F)c2F)C1` [Example 155, 1-(3-Methanesulfonyl-2-methoxy-6-{[(2S)-1,1,1-trifluoropropan-2-yl]oxy}benzoyl)-3-(2,3,4-trifluorophenyl)azetidine] it is below 100 nM.
Consider `COc1c(C#N)ccc(O[C@@H](C)C(F)(F)F)c1C(=O)N1CC(c2ncc(C#N)cc2Cl)C1` [Example 13, 5-Chloro-6-{1-[(3-cyano-2-methoxy-6-{[(2S)-1,1,1-trifluoropropan-2-yl]oxy}phenyl)carbonyl]azetidin-3-yl}pyridine-3-carbonitrile], for which the IC50 was 100 to 1000 nM.
In the case of `COc1c(S(C)(=O)=O)ccc(OC(C)C)c1C(=O)N1CC(c2ccc3ncoc3c2)C1` [Example 248, 6-{1-[3-Methanesulfonyl-2-methoxy-6-(propan-2-yloxy)benzoyl]azetidin-3-yl}-1,3-benzoxazole], the IC50 is below 100 nM.
Consider `COc1c(S(C)(=O)=O)ccc(O[C@@H](C)C(F)(F)F)c1C(=O)N1CC(c2ccc(C(F)F)cc2Cl)C1` [Example 147, 3-[2-Chloro-4-(difluoromethyl)phenyl]-1-(3-methanesulfonyl-2-methoxy-6-{[(2S)-1,1,1-trifluoropropan-2-yl]oxy}benzoyl)azetidine], for which the IC50 is below 100 nM.
Consider `COc1c(C#N)ccc(C2CN(C(=O)c3c(O[C@@H](C)C(F)(F)F)ccc(C#N)c3OC)C2)c1Cl` [Example 175, 3-Chloro-4-{1-[(3-cyano-2-methoxy-6-{[(2S)-1,1,1-trifluoropropan-2-yl]oxy}phenyl)carbonyl]azetidin-3-yl}-2-methoxybenzonitrile], for which the IC50 was below 100 nM.
As for `COc1c(C#N)ccc(C2(F)CCOCC2)c1C(=O)N1CC(Oc2ccc(C(F)(F)F)cc2)C1` [Example 24, 4-(4-Fluorooxan-4-yl)-2-methoxy-3-({3-[4-(trifluoromethyl)phenoxy]azetidin-1-yl}carbonyl)benzonitrile], the figure is 100 to 1000 nM; as for `COc1c(S(C)(=O)=O)ccc(O[C@@H](C)C(F)(F)F)c1C(=O)N1CC(Oc2c(F)cc(F)cc2F)C1` [Example 59, 1-(3-Methanesulfonyl-2-methoxy-6-{[(2S)-1,1,1-trifluoropropan-2-yl]oxy}benzoyl)-3-(2,4,6-trifluorophenoxy)azetidine], below 100 nM; as for `COc1c(C#N)ccc(O[C@@H](C)C(F)(F)F)c1C(=O)N1CC(F)(c2ccc(F)c(F)c2)C1` [Example 70, 3-{[3-(3,4-Difluorophenyl)-3-fluoroazetidin-1-yl]carbonyl}-2-methoxy-4-{[(2S)-1,1,1-trifluoropropan-2-yl]oxy}benzonitrile], 100 to 1000 nM.
Consider `COc1c(S(C)(=O)=O)ccc(OCC(F)(F)F)c1C(=O)N1CC(Oc2ccc(F)cc2F)C1` [Example 227, 3-(2,4-Difluorophenoxy)-1-[3-methanesulfonyl-2-methoxy-6-(2,2,2-trifluoroethoxy)benzoyl]azetidine], for which the IC50 is 100 to 1000 nM.
As for `COc1c(C#N)ccc(C2(F)CCOCC2)c1C(=O)N1CC(c2cc(F)cc(F)c2)C1` [Example 19, 3-{[3-(3,5-Difluorophenyl)azetidin-1-yl]carbonyl}-4-(4-fluorooxan-4-yl)-2-methoxybenzonitrile], the figure is below 100 nM; as for `COc1c(C#N)ccc(O[C@@H](C)C(F)(F)F)c1C(=O)N1CC(c2ccc(C(F)(F)F)nc2)C1` [Example 31, 2-Methoxy-3-({3-[6-(trifluoromethyl)pyridin-3-yl]azetidin-1-yl}carbonyl)-4-{[(2S)-1,1,1-trifluoropropan-2-yl]oxy}benzonitrile], 100 to 1000 nM; as for `CC(Oc1ccc(C#N)c(Cl)c1C(=O)N1CC(c2ccc(C(F)(F)F)nc2)C1)C(F)(F)F` (stereo not shown) [Example 112, 2-Chloro-3-({3-[6-(trifluoromethyl)pyridin-3-yl]azetidin-1-yl}carbonyl)-4-[(1,1,1-trifluoropropan-2-yl)oxy]benzonitrile], below 100 nM.
The figure for `COc1c(S(C)(=O)=O)ccc(O[C@@H](C)C(F)(F)F)c1C(=O)N1CC(c2ccc(C(F)F)cc2F)C1` [Example 143, 3-[4-(Difluoromethyl)-2-fluorophenyl]-1-(3-methanesulfonyl-2-methoxy-6-{[(2S)-1,1,1-trifluoropropan-2-yl]oxy}benzoyl)azetidine] is 100 to 1000 nM; for `COc1c(C#N)ccc(O[C@@H](C)C(F)(F)F)c1C(=O)N1CC(c2ncc(F)cc2F)C1` [Example 121, 3-{[3-(3,5-Difluoropyridin-2-yl)azetidin-1-yl]carbonyl}-2-methoxy-4-{[(2S)-1,1,1-trifluoropropan-2-yl]oxy}benzonitrile] it is below 100 nM.
Consider `COc1c(S(C)(=O)=O)ccc(OCC(F)(F)F)c1C(=O)N1CC(Oc2ccc(Cl)cc2)C1` [Example 222, 3-(4-Chlorophenoxy)-1-[3-methanesulfonyl-2-methoxy-6-(2,2,2-trifluoroethoxy)benzoyl]azetidine], for which the IC50 is 100 to 1000 nM.
As for `COc1c(C#N)ccc(O[C@@H](C)C(F)(F)F)c1C(=O)N1CC(c2ncccc2Cl)C1` [Example 38, 3-{[3-(3-Chloropyridin-2-yl)azetidin-1-yl]carbonyl}-2-methoxy-4-{[(2S)-1,1,1-trifluoropropan-2-yl]oxy}benzonitrile], the figure is below 100 nM; as for `COc1c(S(C)(=O)=O)ccc(OC(C)C)c1C(=O)N1CC(c2ncc(C(F)(F)F)cc2F)C1` [Example 215, 3-Fluoro-2-{1-[3-methanesulfonyl-2-methoxy-6-(propan-2-yloxy)benzoyl]azetidin-3-yl}-5-(trifluoromethyl)pyridine], 100 to 1000 nM; as for `COc1c(C#N)ccc(OC(C)C(F)(F)F)c1C(=O)N1CC(c2cncc(C)c2)C1` (stereo not shown) [Example 111, 2-Methoxy-3-{[3-(5-methylpyridin-3-yl)azetidin-1-yl]carbonyl}-4-[(1,1,1-trifluoropropan-2-yl)oxy]benzonitrile], 100 to 1000 nM.
As for `COc1c(S(C)(=O)=O)ccc(OCC(C)(C)C)c1C(=O)N1CC(Oc2cc(F)c(F)cc2F)C1` [Example 241, 1-[6-(2,2-Dimethylpropoxy)-3-methanesulfonyl-2-methoxybenzoyl]-3-(2,4,5-trifluorophenoxy)azetidine], the figure is 100 to 1000 nM; as for `CC(Oc1ccc(C#N)c(Cl)c1C(=O)N1CC(c2ccncc2)C1)C(F)(F)F` (stereo not shown) [Example 72, 2-Chloro-3-{[3-(pyridin-4-yl)azetidin-1-yl]carbonyl}-4-[(1,1,1-trifluoropropan-2-yl)oxy]benzonitrile], 100 to 1000 nM.
The figure for `COc1c(C#N)ccc(OC(C)C(F)(F)F)c1C(=O)N1CC(Oc2ccc(F)cc2)C1` (stereo not shown) [Example 74, 3-{[3-(4-Fluorophenoxy)azetidin-1-yl]carbonyl}-2-methoxy-4-[(1,1,1-trifluoropropan-2-yl)oxy]benzonitrile] is 100 to 1000 nM.
As to `COc1c(S(C)(=O)=O)ccc(O[C@@H](C)C(F)(F)F)c1C(=O)N1CC(c2ccc(C(F)F)c(F)c2)C1` [Example 142, 3-[4-(Difluoromethyl)-3-fluorophenyl]-1-(3-methanesulfonyl-2-methoxy-6-{[(2S)-1,1,1-trifluoropropan-2-yl]oxy}benzoyl)azetidine], the IC50 is 1000 to 10000 nM.
The figure for `COc1c(C#N)ccc(O[C@@H](C)C(F)(F)F)c1C(=O)N1CC(c2ccccc2C#N)C1` [Example 123, 3-{[3-(2-Cyanophenyl)azetidin-1-yl]carbonyl}-2-methoxy-4-{[(2S)-1,1,1-trifluoropropan-2-yl]oxy}benzonitrile] is below 100 nM; for `COc1c(C#N)ccc(OC(C)C(F)(F)F)c1C(=O)N1CC(c2ccc(C#N)cc2)C1` (stereo not shown) [Example 95, 3-{[3-(4-Cyanophenyl)azetidin-1-yl]carbonyl}-2-methoxy-4-[(1,1,1-trifluoropropan-2-yl)oxy]benzonitrile] it is 100 to 1000 nM.
As for `N#Cc1ccc(OCC(F)(F)F)c(C(=O)N2CC(c3ccc(C(F)(F)F)cc3)C2)c1Cl` [Example 105, 2-Chloro-4-(2,2,2-trifluoroethoxy)-3-({3-[4-(trifluoromethyl)phenyl]azetidin-1-yl}carbonyl)benzonitrile], the figure is 100 to 1000 nM.
